Results published in paper PMC10226041, “Discovery of Ruthenium(II) Metallocompound and Olaparib Synergy for Cancer Combination Therapy” (Journal of Medicinal Chemistry, 2023).
Where a name gives a salt, the structure may show the parent alone.

How the values were obtained:
[1] = octanol/water partition coefficient; source not given; cited from earlier work
[2] = tested on: MDA-MB-231 cells; assay: MTT cell viability assay, MDA-MB-231 cells; assay type: cell-based, human; settings: for IC50 / fold shift = IC50 (−OLAP)/IC50 (+OLAP): MDA-MB-231, 72 h; for IC50: MTT, read-out: IC50, –OLAP (compound alone); for fold shift = IC50 (−OLAP)/IC50 (+OLAP): Olaparib 10 μM
Method: (§1) Following treatment, solutions were removed, thiazolyl blue tetrazolium bromide (MTT, 0.5 mg/mL) reagent was added to the cells, and plates were incubated for 4 h. The reduced purple formazan crystals were solubilized with 100 μL of DMSO, and the absorbance at 570 nm (620 nm as reference wavelength) was measured using a microplate reader. The average in percent reduction of cell viability was expressed relative to untreated control cells. The combinatorial effect was evaluated by the generation of the compound dose–response curve and a shift of the IC50 value in the presence or absence of Olaparib (graphed and calculated using GraphPad Prism software).

[3] = tested on: MDA-MB-231 cells; assay: Drug interaction analysis (Chou and Talalay combination index) with Olaparib from MTT data; assay type: cell-based, human; settings: MDA-MB-231, Olaparib 10 μM, result in words
Method: as §1
Dose–effect curves for single agents and their combinations were generated from the MTT assay data, and the combination index (CI) values were calculated using CalcuSyn and CompuSyn software (Biosoft, Cambridge, UK) as established by Chou and Talalay.[43] CI < 0.9 indicates synergism, CI = 0.9–1.0 indicates additive, and CI > 1 indicates antagonism. GraphPad Prism Software was used to generate a 3-color scale based on CI values obtained, where synergism is represented by green, additive by yellow, and antagonism by red. The colors of each CI value were interpolated in between these constraints accordingly.

[4] = tested on: MCF7 cells; assay: MTT cell viability assay, MCF7 cells; assay type: cell-based, human; settings: for IC50: Homo sapiens, MCF7, 72 h, MTT, single agent, read-out: IC50 MCF7, –OLAP (single agent)
Method: as §1, with “Cells were seeded at 5 × 10^3 cells/well for MCF7 cells and 1 × 10^4 cells/well for MDA-MB-231 and MCF10A cells, respectively, in 96-well plates, allowed to adhere for 24 h, and treated as described in the main text. Following” for “Following”

[5] = tested on: MDA-MB-231 3D tumor spheroids; assay: Spheroid growth inhibition, MDA-MB-231 spheroids; assay type: cell-based, human; settings: compound 1 μM in combination with Olaparib 10 μM
Method: (§2) Spheroids were grown as described initially. […] Spheroids were treated with the identified combinations and single drugs alone for 72 h. Every other day thereafter, 50% of the treatment-containing medium was replaced. Spheroids were imaged every three days for a period of 12 days using a microscope attached to a digital camera. The structural integrity of spheroids following treatments was observed, and the volume was measured as initially described.

[6] = tested on: wild-type zebrafish (Danio rerio) embryos; settings: in vivo
Method: Wild-type zebrafish embryos were obtained from breeding facilities at Danio Assay Laboratories Sdn.Bhd. (Universiti Putra Malaysia). […] Danio-SprintM embryo media were used as a control. Survival and hatching rates were observed under a microscope attached with a digital camera and imaged at 24, 48, 72, and 96 hpf. […] Four lethal endpoints were evaluated including coagulated embryos, lack of somite formation, non-detachment of the tail, and lack of heartbeat. All these characteristics were recorded every 24 hpf, except the heartbeat, which is visible after 48 hpf.

[7] = tested on: MCF7 3D tumor spheroids; assay: Spheroid growth inhibition, MCF7 spheroids; assay type: cell-based, human; settings: compound 1 μM in combination with Olaparib 10 μM
Method: as §2

[8] = tested on: MDA-MB-231R cells; assay: Clonogenic survival assay, Olaparib-resistant MDA-MB-231R cells; assay type: cell-based, human
Method: The Olaparib-resistant MDA-MB-231 cell line (MDA-MB-231R) was developed from the parental MDA-MB-231 cell line by long-term drug exposure (∼8 months, 10–100 μM Olaparib) in a similar manner described by Kim et al.[45] MDA-MB-231 cells were seeded at a density of 1.5 × 10^5 cells in a 25 cm^2 flask and allowed to adhere for 24 h. Cells were treated with a starting Olaparib concentration of 10 μM, and treatments were refreshed every 3 days. After each week, the confluency was assessed: if confluency is <50%, the treatment was stopped; if confluency is at 50–70%, the treatment was maintained; and if confluency is over 70%, a portion of the cells was frozen. When the cells adapted to a new drug concentration, cells were reseeded at a density of 1.5 × 10^5 cells in a new 25 cm^2 flask and allowed to adhere before the next exposure to the increased concentration of Olaparib. This procedure was repeated to achieve a final concentration of Olaparib of 100 μM. Following this, MDA-MB-231R cells were maintained in a low concentration of Olaparib (10 μM) to preserve resistance. […]
Cells were seeded at 1 × 10^3 cells/well in 6-well plates, allowed to adhere for 24 h, and treated as described in the main text. […] Individual colonies were counted using ImageJ software, and the survival fraction was determined (normalized to controls).

[9] = tested on: MCF10A cells; assay: MTT cell viability assay, MCF10A normal breast cells; assay type: cell-based; settings: Homo sapiens, MCF-10A, 72 h, single agent, read-out: IC50 MCF10A, –OLAP (single agent)
Method: as §1, with “Cells were seeded at 5 × 10^3 cells/well for MCF7 cells and 1 × 10^4 cells/well for MDA-MB-231 and MCF10A cells, respectively, in 96-well plates, allowed to adhere for 24 h, and treated as described in the main text. Following” for “Following”

[10] = tested on: MDA-MB-231 cells; assay: Clonogenic survival assay, MDA-MB-231 cells; assay type: cell-based; settings: Homo sapiens; MDA-MB-231, clonogenic, 72 h treatment; read-out: IC50 values of OLAP, – Compound
Method: (§3) Cells were seeded at 1 × 10^3 cells/well in 6-well plates, allowed to adhere for 24 h, and treated as described in the main text. After treatment, solutions were removed, and cells were cultured in compound-free medium for 7–10 days to allow colony formation. Cells were then washed (1× PBS, twice), fixed (ice-cold 100% methanol, 15–20 min, 4 °C), and stained (0.5% crystal violet solution, 20 min). The staining solution was washed with water, and images were photographed with a digital camera. Individual colonies were counted using ImageJ software, and the survival fraction was determined (normalized to controls).

[11] = tested on: MDA-MB-231 cells; settings: 72 h, 10 µM
Method: Cells were seeded at 3 × 10^5 cells/well in 6-well plates, allowed to adhere for 24 h, and treated as described in the main text. After treatment, cells were trypsinized and washed with 1× PBS twice. This was followed by the addition of 500 μL of 1× binding buffer and 5 μL of Annexin V-FITC (Invitrogen). The cell-containing mixture was incubated for 20 min at RT. A total of 5 μL of PI (20 μg/mL) was added prior to flow cytometric analysis using a flow cytometer, and results were analyzed using NovoExpress software. For each sample, a minimum of 10,000 cells were counted.

[12] = tested on: MCF7 cells; assay: Clonogenic survival assay, MCF7 cells; assay type: cell-based; settings: Homo sapiens, 72 h treatment, read-out: IC50 values of OLAP, – Compound
Method: as §3

[13] = tested on: TNBC and lung cancer cells; set-up: method as in PMID 31898884, PMID 36702871; settings: sub-cytotoxic concentrations of Ru-PIP; cited from earlier work

## CNCc1ccc(-c2cc(-c3nc(-c4ccc(S(=O)(=O)C(C)C)cc4)cnc3N)on2)cc1 [Berzosertib, reference compound]
[1]
  Log P: 3.16
[2]; Homo sapiens, single agent
  IC50: 0.46 ± 0.01 µM
[2]
  fold shift = IC50 (−OLAP)/IC50 (+OLAP): 1.7

## C[C@@H]1COCCN1c1cc(C2([S@](C)(=N)=O)CC2)nc(-c2cc[nH]c3nccc2-3)n1 [Ceralasertib, reference compound]
[1]
  Log P: 1.91
[2]; Homo sapiens, single agent
  IC50: 4.4 ± 0.4 µM
[2]
  fold shift = IC50 (−OLAP)/IC50 (+OLAP): 0.9

## [Ru+2].c1ccc(-c2ccccn2)nc1.c1ccc(-c2ccccn2)nc1.c1ccc(-c2nc3c4cccnc4c4ncccc4c3[nH]2)cc1 [Compound 1, [Ru(bpy)2(PIP)]^2+]
[2]; single agent
  IC50: > 100 µM
[2]
  fold shift = IC50 (−OLAP)/IC50 (+OLAP): >1.3

## c1ccc(-c2nc3c4ccc[n+]5c4c4c(ccc[n+]4[Ru-4]546([n+]5cccc7ccc8ccc[n+]4c8c75)[n+]4cccc5ccc7ccc[n+]6c7c54)c3[nH]2)cc1 [Compound 3, [Ru(phen)2(PIP)]^2+]
[2]; single agent
  IC50: 29.2 ± 3.7 µM
[2]
  fold shift = IC50 (−OLAP)/IC50 (+OLAP): 3.7
[3]
  Synergy with Olaparib (CI scores of less than 0.9 considered synergistic): additive relationship with Olaparib

## Oc1ccc(-c2nc3c4ccc[n+]5c4c4c(ccc[n+]4[Ru-4]546([n+]5cccc7ccc8ccc[n+]4c8c75)[n+]4cccc5ccc7ccc[n+]6c7c54)c3[nH]2)cc1 [Compound 4, [Ru(phen)2(H-PIP)]^2+]
[2]; single agent
  IC50: 11.6 ± 3.2 µM
[2]
  fold shift = IC50 (−OLAP)/IC50 (+OLAP): 6.8
[3]
  Synergy with Olaparib (CI scores of less than 0.9 considered synergistic): additive relationship with Olaparib

## Cc1cc(C)c2nc3c4ccc[n+]5c4c4c(ccc[n+]4[Ru-4]546([n+]5ccccc5-c5cccc[n+]54)[n+]4ccccc4-c4cccc[n+]46)c3nc2c1 [Compound 5, [Ru(bpy)2(dmdppz)]^2+]
[2]; single agent
  IC50: 75.1 ± 12.2 µM
[2]
  fold shift = IC50 (−OLAP)/IC50 (+OLAP): <0.8

## Cc1cc(C)c2nc3c4ccc[n+]5c4c4c(ccc[n+]4[Ru-4]546([n+]5cc(C)ccc5-c5ccc(C)c[n+]54)[n+]4cc(C)ccc4-c4ccc(C)c[n+]46)c3nc2c1 [Compound 6, [Ru(5,5′dmb)2(dmdppz)]^2+]
[2]; single agent
  IC50: 87.4 ± 2.3 µM
[2]
  fold shift = IC50 (−OLAP)/IC50 (+OLAP): 5.0

## Cc1cc[n+]2c(c1)-c1cc(C)cc[n+]1[Ru-4]213([n+]2ccc(C)cc2-c2cc(C)cc[n+]21)[n+]1cccc2c4nc5cc(C)cc(C)c5nc4c4ccc[n+]3c4c21 [Compound 7, [Ru(4,4′dmb)2(dmdppz)]^2+]
[2]; single agent
  IC50: 34.3 ± 0.5 µM
[2]
  fold shift = IC50 (−OLAP)/IC50 (+OLAP): 2.3
[3]
  Synergy with Olaparib (CI scores of less than 0.9 considered synergistic): additive relationship with Olaparib

## COc1cc(/C=C/C(=O)CC(=O)/C=C/c2ccc(O)c(OC)c2)ccc1O [Curcumin, reference compound]
[1]
  Log P: 4.12
[2]; Homo sapiens, single agent
  IC50: 25.1 ± 2.4 µM
[3]
  Synergy with Olaparib (CI scores of less than 0.9 considered synergistic): synergistic over most of the tested concentrations
[4]
  IC50: 22.5 ± 4.1 µM
[5]
  day of complete disintegration of spheroids: 6 days
[6]
  hatching rate: neither 10 nor Curcumin impacted the hatching rate significantly
[7]
  day of complete disintegration of spheroids: 9 days
[8]; MDA-MB-231R, compound 1 μM alongside Olaparib 0.1–100 μM, 72 h
  inhibition of colony formation: retains the ability to inhibit colony formation in a similar manner to the parental MDA-MB-231 cells
[9]
  IC50: 37.4 ± 6 µM

## O=c1[nH]cc(F)c(=O)[nH]1 [Fluorouracil, reference compound]
[2]; Homo sapiens, single agent
  IC50: 12.1 ± 3 µM

## Cc1nc2c(O)cccc2c(=O)[nH]1 [NU1025]
[1]
  Log P: 0.47

## O=C(c1cc(Cc2n[nH]c(=O)c3ccccc23)ccc1F)N1CCN(C(=O)C2CC2)CC1 [Olaparib]
[2]; Homo sapiens, single agent
  IC50: 80.9 ± 15 µM
[2]; single agent, 72 h
  SI MDA-MB-231 (IC50 MCF10A/IC50 cancer cell line), single agent: >1.2
[10]
  IC50: > 10 µM
[11]
  percentage of cells in quadrant Q3-1: 0.34%
  percentage of cells in quadrant Q3-2 (apoptotic): 1.44%
  percentage of cells in quadrant Q3-3: 82.66%
  percentage of cells in quadrant Q3-4 (apoptotic): 15.56%
[4]; 72 h
  SI MCF7 (IC50 MCF10A/IC50 cancer cell line), single agent: >1.4
[4]
  IC50: 69.6 ± 6.3 µM
[12]
  IC50: 2.72 ± 0.45 µM
[6]; 96 hpf, 25 mg/L
  pericardial edema (PE): 45.8% ± 17.7
  spinal deformity (SD): 75.0% ± 23.6
  yolk sac edema (YSE): 45.8% ± 29.5
[8]; clonogenic survival assay
  level of resistance of MDA-MB-231R compared to parental MDA-MB-231 cells: 28 fold
[9]
  IC50: > 100 µM

## O=c1c(O)c(-c2ccc(O)c(O)c2)oc2cc(O)cc(O)c12 [Quercetin, reference compound]
[2]; Homo sapiens, single agent
  IC50: > 100 µM

## [Ru+2].c1ccc(-c2nc3c4cccnc4c4ncccc4c3[nH]2)cc1.c1ccc2nc3c4cccnc4c4ncccc4c3nc2c1.c1ccc2nc3c4cccnc4c4ncccc4c3nc2c1 [Ru-PIP, [Ru(dppz)2(PIP)]^2+]
[13]
  increase in Olaparib potency: > 300 fold

## N.N.[Cl][Pt][Cl] [cisplatin, reference compound]
[2]; single agent
  IC50: 35.3 ± 5.5 µM

## Nc1ccn([C@@H]2O[C@H](CO)[C@@H](O)C2(F)F)c(=O)n1 [gemcitabine hydrochloride, reference compound]
[2]; Homo sapiens, single agent
  IC50: 1.6 ± 0.8 µM
[2]
  fold shift = IC50 (−OLAP)/IC50 (+OLAP): 2.7
